Results as given in patent US20250206773A1, “FORMS AND COMPOSITIONS OF SODIUM CHENODEOXYCHOLATE” (Syntis Bio, Inc., priority 2022, published 2025).
Where two headings read alike, the source gives them in different places.

Experiments:
[1] = Intrinsic dissolution, USP rotating disk apparatus; type: physicochemical
Description: For the intrinsic dissolution studies, the following HPLC method was used: [table] Intrinsic dissolution profiles of NaCDC Form A and Form B were determined from a drug disk of constant surface area using a USP rotating disk apparatus in phosphate buffer (pH 7.4) at 37° C. […] A typical apparatus consisted of a punch and a die, whose base is attached to a surface plate. […] The punch was then inserted in the die cavity and the test material was compressed with a hydraulic press. A non-disintegrating compact of the material was formed in the die cavity with a single face of defined area exposed on the bottom of the die. The die assembly was then attached to a shaft with a holder and the surface plate was removed. The shaft holding the die assembly was positioned into the dissolution medium at a distance not less than 1.0 cm from the bottom of the vessel. In this procedure, fluid flow was generated by the rotation of the die. The amount of material dissolved was measured as a function of time. In particular, the cumulative amount dissolved at each time point was corrected for losses due to sampling. […] Method parameters are summarized below: [table]

[2] = type: physicochemical
Description: HPLC analysis was carried out on an Agilent 1260 Infinity chromatograph, using a Hichrom C18 column 100×4.6 mm, 3.5 m, at 40° C. Method details were as follows:
Around 10 mg of NaCDC Form B was weighed into clear HPLC vials and the selected solvents (500 μL) were added to the vials. Experiments ST07, 09, 11, 13, 15, 17, 19 and 21 were kept stirring for 24 h at 30° C. and 60° C., while samples were taken after 4 h and 24 h for HPLC analysis. Subsequently, the same experiments were evaporated at 30° C. for 24 h under reduced pressure (21-22 mbar), and the solids were evaluated by HPLC and XRPD. Separately, the solutions and slurries from experiments ST10, 12, 14, 16, 18, 20 and 22 were stirred for 24 h at 30° C. and 60° C. (no samples were taken) and evaporated at 60° C. for 24 h under reduced pressure (20-21 mbar). The recovered materials were sampled for HPLC and XRPD analyses.

[3] = type: physicochemical; remark: listed apart in the source
Description: HPLC analysis was carried out on an Agilent 1260 Infinity chromatograph, using a Hichrom C18 column 100×4.6 mm, 3.5 m, at 40° C. Method details were as follows: [table] Around 10 mg of NaCDC Form B was weighed into 1.6 mL HPLC vials. 3-5 mm PTFE-covered cylindrical magnetic stirring bars were added to the vials. […] The vials were visually inspected before each addition to check for the dissolution of the starting material, and the solvent addition was stopped when a complete dissolution was observed. The clear solutions were left to rest at RT. […] The experiments were held at each temperature for 1 h, and then they were visually inspected to see if dissolution occurred. At the end of the experimental time, the magnetic stirring bars were removed, and all slurries or solutions were dried at different temperatures depending on the boiling points of each solvent used (i.e., at 30° C., 20-21 mbar or 50° C., 21 mbar, for 21 hours; with the exception of experiments SASO7, SAS33, SAS34, SAS35, SAS36 and SAS45 which were dried at 50° C. for 43 hours). All the resulting solids were analyzed by XRPD. For several selected experiments, HPLC analysis was performed. The solids that gave new XRPD patterns were investigated by TGA/DSC. [table]

[4] = ST13: Methanol, solution, 60° C.
[5] = ST17: n-Heptane, slurry, 60° C.

C[C@H](CCC(=O)[O-])[C@H]1CC[C@H]2[C@@H]3[C@H](O)C[C@@H]4C[C@H](O)CC[C@]4(C)[C@H]3CC[C@]12C.[Na+] [Form B, sodium chenodeoxycholate]
solid form after compression (XRPD) ([1]; 2 tons for 2 minutes): no change in solid form | IDR (intrinsic dissolution rate) ([1]; USP phosphate buffer pH 7.4, 37° C., 100 rpm, disk 0.5024 cm^2): 0.9218 mg · min^−1 · cm^−2 | HPLC purities throughout the stability tests [2]: ≥ 86.1% | form stability in slurry experiments (XRPD) [2]: stable | stability in solution and/or slurry [2]: remained stable | HPLC (%) at 212 nm (after evap.) ([2]; ST07: Water solution RT 24 h, evaporated at 30° C. 24 h): 97.8% | XRPD (after evap.) ([2]; ST07: Water solution RT, evaporated at 30° C.): Am. | HPLC (%) at 212 nm (before evap.) 4 h ([2]; ST07: Water, solution, RT): 100.0% | HPLC (%) at 212 nm (before evap.) 24 h ([2]; ST07: Water, solution, RT): 96.2% | HPLC (%) at 212 nm (after evap.) ([2]; ST08: Water solution RT 24 h, evaporated at 60° C. 24 h, listed as NaCDC Form B): 84.6% | HPLC (%) at 212 nm (after evap.) ([2]; ST08: Water solution RT 24 h, evaporated at 60° C. 24 h, listed as starting material): around 84.5% | XRPD (after evap.) ([2]; ST08: Water solution RT, evaporated at 60° C.): Am. | HPLC (%) at 212 nm (after evap.) ([2]; ST09: Water solution 60° C. 24 h, evaporated at 30° C. 24 h): 95.7% | XRPD (after evap.) ([2]; ST09: Water solution 60° C., evaporated at 30° C.): Am. | HPLC (%) at 212 nm (before evap.) 4 h ([2]; ST09: Water, solution, 60° C.): 100.0% | HPLC (%) at 212 nm (before evap.) 24 h ([2]; ST09: Water, solution, 60° C.): 96.6% | HPLC (%) at 212 nm (after evap.) ([2]; ST10: Water solution 60° C. 24 h, evaporated at 60° C. 24 h): 90.0% | XRPD (after evap.) ([2]; ST10: Water solution 60° C., evaporated at 60° C.): Am. | HPLC (%) at 212 nm (after evap.) ([2]; ST11: Methanol solution RT 24 h, evaporated at 30° C. 24 h): 87.1% | XRPD (after evap.) ([2]; ST11: Methanol solution RT, evaporated at 30° C.): Am. | HPLC (%) at 212 nm (before evap.) 4 h ([2]; ST11: Methanol, solution, RT): 91.4% | HPLC (%) at 212 nm (before evap.) 24 h ([2]; ST11: Methanol, solution, RT): 93.5% | HPLC (%) at 212 nm (after evap.) ([2]; ST12: Methanol solution RT 24 h, evaporated at 60° C. 24 h): 90.5% | XRPD (after evap.) ([2]; ST12: Methanol solution RT, evaporated at 60° C.): Am. | HPLC (%) at 212 nm (after evap.) ([2]; ST13: Methanol solution 60° C. 24 h, evaporated at 30° C. 24 h): no peak~ | XRPD (after evap.) ([2]; ST13: Methanol solution 60° C., evaporated at 30° C.): Am. | HPLC (%) at 212 nm (before evap.) 4 h [2, 4]: 94.8% | HPLC (%) at 212 nm (before evap.) 24 h [2, 4]: 90.3% | HPLC (%) at 212 nm (after evap.) ([2]; ST14: Methanol solution 60° C. 24 h, evaporated at 60° C. 24 h): 92.5% | XRPD (after evap.) ([2]; ST14: Methanol solution 60° C., evaporated at 60° C.): Am. | HPLC (%) at 212 nm (after evap.) ([2]; ST15: n-Heptane slurry RT 24 h, evaporated at 30° C. 24 h): no peak~ | HPLC (%) at 212 nm (before evap.) 4 h ([2]; ST15: n-Heptane, slurry, RT): 89.9% | HPLC (%) at 212 nm (before evap.) 24 h ([2]; ST15: n-Heptane, slurry, RT): 100.0% | HPLC (%) at 212 nm (after evap.) ([2]; ST16: n-Heptane slurry RT 24 h, evaporated at 60° C. 24 h, listed as NaCDC Form B): 84.5% | HPLC (%) at 212 nm (after evap.) ([2]; ST16: n-Heptane slurry RT 24 h, evaporated at 60° C. 24 h, listed as starting material): around 84.5% | HPLC (%) at 212 nm (after evap.) ([2]; ST17: n-Heptane slurry 60° C. 24 h, evaporated at 30° C. 24 h): 93.6% | HPLC (%) at 212 nm (before evap.) 4 h [2, 5]: 91.5% | HPLC (%) at 212 nm (before evap.) 24 h [2, 5]: 91.4% | HPLC (%) at 212 nm (after evap.) ([2]; ST18: n-Heptane slurry 60° C. 24 h, evaporated at 60° C. 24 h): 90.4% | HPLC (%) at 212 nm (after evap.) ([2]; ST19: MEK slurry RT 24 h, evaporated at 30° C. 24 h): 74.1% | HPLC (%) at 212 nm (before evap.) 4 h ([2]; ST19: MEK, slurry, RT): 100.0% | HPLC (%) at 212 nm (before evap.) 24 h ([2]; ST19: MEK, slurry, RT): 97.7% | HPLC (%) at 212 nm (after evap.) ([2]; ST20: MEK slurry RT 24 h, evaporated at 60° C. 24 h): 86.1% | HPLC (%) at 212 nm (after evap.) ([2]; ST21: MEK slurry 60° C. 24 h, evaporated at 30° C. 24 h): 55.9% | HPLC (%) at 212 nm (before evap.) 4 h ([2]; ST21: MEK, slurry, 60° C.): 65.2% | HPLC (%) at 212 nm (before evap.) 24 h ([2]; ST21: MEK, slurry, 60° C.): 94.5% | HPLC (%) at 212 nm (after evap.) ([2]; ST22: MEK slurry 60° C. 24 h, evaporated at 60° C. 24 h): 86.6% | HPLC (%) 212 nm ([3]; SAS01, Water (H2O), solid after evaporation A (30° C., 20-21 mbar, 21 hours)): 84.9% | HPLC (%) 212 nm ([3]; SAS03, Ethanol (EtOH), solid after evaporation A (30° C., 21 hours)): 71.5% | HPLC (%) 212 nm ([3]; SAS04, 2-Propanol (2-PrOH), solid after evaporation A (30° C., 21 hours)): 96.6% | HPLC (%) 212 nm ([3]; SAS05, 2-Methyl-1-propanol (Isobutanol), solid after evaporation A (30° C., 21 hours)): 96.5% | HPLC (%) 212 nm ([3]; SAS06, 2-Butanol, solid after evaporation A (30° C., 21 hours)): 97.5% | HPLC (%) 212 nm ([3]; SAS07, 2-Ethoxyethanol, solid after evaporation C (50° C., 43 hours)): 38.0% | HPLC (%) 212 nm ([3]; SAS08, 2,2,2-Trifluoroethanol (TFE), solid after evaporation A (30° C., 21 hours)): 91.3% | HPLC (%) 212 nm ([3]; SAS09, 3-Methyl-1-butanol (Isoamyl alcohol), solid after evaporation B (50° C., 21 hours)): 48.1% | HPLC (%) 212 nm ([3]; SAS20, n-Butyl acetate, solid after evaporation B (50° C., 21 hours)): 96.3% | HPLC (%) 212 nm ([3]; SAS24, Diisopropyl ether, solid after evaporation A (30° C., 21 hours)): 94.4% | HPLC (%) 212 nm ([3]; SAS33, Benzonitrile, solid after evaporation C (50° C., 43 hours)): 68.0% | HPLC (%) 212 nm ([3]; SAS34, N,N-Dimethyl-acetamide, solid after evaporation C (50° C., 43 hours)): 1.2% | HPLC (%) 212 nm ([3]; SAS35, N-Methyl-pyrrolidone, gel after evaporation C (50° C., 43 hours)): 1.5% | HPLC (%) 212 nm ([3]; SAS36, Dimethyl sulfoxide (DMSO), solid after evaporation C (50° C., 43 hours)): 32.4% | HPLC (%) 212 nm ([3]; SAS39, EtOH:MeCN (1:1 v/v), solid after evaporation A (30° C., 21 hours)): 80.1% | HPLC (%) 212 nm ([3]; SAS40, H2O:THF (1:1 v/v), solid after evaporation A (30° C., 21 hours)): 77.5% | HPLC (%) 212 nm ([3]; SAS41, H2O:EtOH (1:1 v/v), solid after evaporation A (30° C., 21 hours)): 90.7% | HPLC (%) 212 nm ([3]; SAS42, H2O:2-PrOH (1:1 v/v), solid after evaporation A (30° C., 21 hours)): 92.0% | HPLC (%) 212 nm ([3]; SAS43, H2O:MeCN (1:1 v/v), solid after evaporation A (30° C., 21 hours)): 91.1% | HPLC (%) 212 nm ([3]; SAS44, H2O:Acetone (1:1 v/v), solid after evaporation A (30° C., 21 hours)): 93.7% | HPLC (%) 212 nm ([3]; SAS45, H2O:DMSO (1:1 v/v), solid after evaporation C (50° C., 43 hours)): 30.2% | HPLC (%) 212 nm ([3]; SAS46, MeOH:EtOAc (1:1 v/v), solid after evaporation A (30° C., 21 hours)): 89.0% | HPLC (%) 212 nm ([3]; SAS47, MeOH:Acetone (1:1 v/v), solid after evaporation A (30° C., 21 hours)): 91.0% | HPLC (%) 212 nm ([3]; SAS48, EtOH:n-Heptane (1:1 v/v), solid after evaporation A (30° C., 21 hours)): 90.1% | HPLC purity of recovered solids (dropped from 99.2%) ([3]; experiments with 2-ethoxyethanol, 3-methyl-1-butanol, benzonitrile, DMAc, NMP, DMSO, H2O:DMSO (1:1 v/v)): 1.2-68.0%
